What follows are molecules tested against T1, NaV1.3 (Homo sapiens, UniProt Q9NY46) (assay: VIPR optical membrane potential assay with electrical stimulation, HEK293 cells stably expressing NaV1.3). Details: compound activity for the NaV1.3 receptors.
T1 construct: expressed in transfected cells
T1 sequence (Q9NY46 whole entry): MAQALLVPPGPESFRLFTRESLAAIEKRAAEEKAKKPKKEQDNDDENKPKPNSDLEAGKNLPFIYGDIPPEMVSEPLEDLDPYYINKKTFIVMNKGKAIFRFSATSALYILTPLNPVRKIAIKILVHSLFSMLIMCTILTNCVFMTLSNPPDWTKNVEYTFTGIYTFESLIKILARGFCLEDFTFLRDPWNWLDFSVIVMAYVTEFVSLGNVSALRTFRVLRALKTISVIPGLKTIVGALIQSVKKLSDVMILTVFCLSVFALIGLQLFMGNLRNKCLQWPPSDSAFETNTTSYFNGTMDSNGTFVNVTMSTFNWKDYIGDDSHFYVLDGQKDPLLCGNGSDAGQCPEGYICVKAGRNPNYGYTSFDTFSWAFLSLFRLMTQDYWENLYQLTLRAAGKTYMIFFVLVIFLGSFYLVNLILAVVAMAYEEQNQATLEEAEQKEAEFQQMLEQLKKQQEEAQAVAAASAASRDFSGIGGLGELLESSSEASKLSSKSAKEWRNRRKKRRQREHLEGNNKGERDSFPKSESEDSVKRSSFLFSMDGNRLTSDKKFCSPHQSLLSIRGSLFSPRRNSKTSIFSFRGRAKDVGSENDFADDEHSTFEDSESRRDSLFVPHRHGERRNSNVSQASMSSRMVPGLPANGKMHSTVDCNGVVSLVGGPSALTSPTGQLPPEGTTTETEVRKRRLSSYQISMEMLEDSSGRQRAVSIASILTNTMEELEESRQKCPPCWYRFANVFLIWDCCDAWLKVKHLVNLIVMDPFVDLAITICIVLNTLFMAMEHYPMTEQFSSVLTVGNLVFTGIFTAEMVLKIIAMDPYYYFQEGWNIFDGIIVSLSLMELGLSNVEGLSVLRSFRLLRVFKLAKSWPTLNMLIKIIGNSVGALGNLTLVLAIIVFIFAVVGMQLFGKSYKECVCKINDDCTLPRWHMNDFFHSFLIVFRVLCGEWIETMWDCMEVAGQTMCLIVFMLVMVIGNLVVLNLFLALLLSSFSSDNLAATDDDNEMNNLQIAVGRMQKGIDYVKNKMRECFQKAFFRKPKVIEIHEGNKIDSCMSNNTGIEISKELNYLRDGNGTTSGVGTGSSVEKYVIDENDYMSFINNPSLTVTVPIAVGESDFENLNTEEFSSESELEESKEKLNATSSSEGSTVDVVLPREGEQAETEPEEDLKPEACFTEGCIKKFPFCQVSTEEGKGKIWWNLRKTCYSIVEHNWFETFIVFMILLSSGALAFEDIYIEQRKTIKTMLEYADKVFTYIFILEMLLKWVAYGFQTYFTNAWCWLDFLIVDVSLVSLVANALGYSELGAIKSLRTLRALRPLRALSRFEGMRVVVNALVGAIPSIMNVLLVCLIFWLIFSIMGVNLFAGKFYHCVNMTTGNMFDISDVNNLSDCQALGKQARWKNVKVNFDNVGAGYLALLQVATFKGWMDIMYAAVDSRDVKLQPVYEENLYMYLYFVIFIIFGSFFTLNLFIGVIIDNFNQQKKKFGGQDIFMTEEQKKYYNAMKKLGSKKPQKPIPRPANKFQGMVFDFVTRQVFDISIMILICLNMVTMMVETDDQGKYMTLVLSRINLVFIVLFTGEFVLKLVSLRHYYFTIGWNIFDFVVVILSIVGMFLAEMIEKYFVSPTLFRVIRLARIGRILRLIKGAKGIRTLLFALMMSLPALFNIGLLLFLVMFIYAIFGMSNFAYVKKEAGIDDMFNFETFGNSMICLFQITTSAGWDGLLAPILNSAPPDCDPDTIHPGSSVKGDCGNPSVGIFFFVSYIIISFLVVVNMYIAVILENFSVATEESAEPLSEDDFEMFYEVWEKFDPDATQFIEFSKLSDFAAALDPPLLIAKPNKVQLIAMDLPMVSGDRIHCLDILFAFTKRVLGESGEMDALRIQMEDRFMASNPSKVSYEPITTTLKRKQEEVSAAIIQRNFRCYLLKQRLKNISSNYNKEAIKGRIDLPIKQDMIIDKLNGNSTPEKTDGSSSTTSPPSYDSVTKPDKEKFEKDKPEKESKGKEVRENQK
Assay type: cell-based
Procedure: Compounds of the invention are useful as antagonists of voltage-gated sodium ion channels. Antagonist properties of test compounds were assessed as follows. Cells expressing the NaV of interest were placed into microtiter plates. After an incubation period, the cells were stained with fluorescent dyes sensitive to the transmembrane potential. The test compounds were added to the microtiter plate. The cells were stimulated with either chemical or electrical means to evoke a NaV dependent membrane potential change from unblocked channels, which was detected and measured with trans-membrane potential-sensitive dyes. Antagonists were detected as a decreased membrane potential response to the stimulus. The optical membrane potential assay utilized voltage-sensitive FRET sensors described by Gonzalez and Tsien (See, Gonzalez, J. E. and R. Y. Tsien (1995) “Voltage sensing by fluorescence resonance energy transfer in single cells” Biophys J 69(4): 1272-80, and Gonzalez, J. E. and R. Y. Tsien (1997) “Improved indicators of cell membrane potential that use fluorescence resonance energy transfer” Chem Biol 4(4): 269-77) in combination with instrumentation for measuring fluorescence changes such as the Voltage/Ion Probe Reader (VIPR®) (See, Gonzalez, J. E., K. Oades, et al. (1999) “Cell-based assays and instrumentation for screening ion-channel targets” Drug Discov Today 4(9): 431-439).
The following is an example of how NaV1.3 inhibition activity is measured using the optical membrane potential method #2. Other subtypes are performed in an analogous mode in a cell line expressing the NaV of interest.
HEK293 cells stably expressing NaV1.3 are plated into 96-well microtiter plates. After an appropriate incubation period, the cells are stained with the voltage sensitive dyes CC2-DMPE/DiSBAC2(3) as follows.
2×CC2-DMPE=20 μM CC2-DMPE: 10 mM CC2-DMPE is vortexed with an equivalent volume of 10% pluronic, followed by vortexing in required amount of HBSS containing 10 mM HEPES. Each cell plate will require 5 mL of 2×CC2-DMPE. 50 μL of 2×CC2-DMPE is added to wells containing washed cells, resulting in a 10 μM final staining concentration. The cells are stained for 30 minutes in the dark at RT.
2×DISBAC2(3) with ABSC1=6 μM DISBAC2(3) and 1 mM ABSC1: The required amount of 10 mM DISBAC2(3) is added to a 50 ml conical tube and mixed with 1 μL 10% pluronic for each mL of solution to be made and vortexed together. Then HBSS/HEPES is added to make up 2× solution. Finally, the ABSC1 is added.
The 2×DiSBAC2(3) solution can be used to solvate compound plates. Note that compound plates are made at 2× drug concentration. Wash stained plate again, leaving residual volume of 50 μL. Add 50 μL/well of the 2×DiSBAC2(3) w/ ABSC1. Stain for 30 minutes in the dark at RT.
The electrical stimulation instrument and methods of use are described in ION Channel Assay Methods PCT/US01/21652, herein incorporated by reference. The instrument comprises a microtiter plate handler, an optical system for exciting the coumarin dye while simultaneously recording the coumarin and oxonol emissions, a waveform generator, a current- or voltage-controlled amplifier, and a device for inserting electrodes in well. Under integrated computer control, this instrument passes user-programmed electrical stimulus protocols to cells within the wells of the microtiter plate.
Use the current-controlled amplifier to deliver stimulation wave pulses for 3 s. Two seconds of pre-stimulus recording are performed to obtain the un-stimulated intensities. Five seconds of post-stimulation recording are performed to examine the relaxation to the resting state.
Data are analyzed and reported as normalized ratios of background-subtracted emission intensities measured in the 460 nm and 580 nm channels. Background intensities are then subtracted from each assay channel. […]
COC(=O)NS(=O)(=O)c1ccc(NC(=O)[C@@H](C)n2ccc3ccccc32)cc1 [Compound 40] was tested, and the IC50 was 2 to 5 µM. For COC(=O)NS(=O)(=O)c1ccc(NC(=O)Cn2c(C)cc3cc(Cl)ccc32)cc1 [Compound 33], the IC50 was > 5 µM. COC(=O)NS(=O)(=O)c1ccc(C2CCN(C(=O)Cn3ccc4ccc(Cl)cc43)CC2)cc1 [Compound 32] was tested, and the IC50 was > 5 µM. Work on COC(=O)NS(=O)(=O)c1ccc(NC(=O)[C@@H](C(C)C)N2CCCc3cc(Cl)ccc32)cc1 [Compound 10] yielded an IC50 of 2 to 5 µM. CCOC(=O)NS(=O)(=O)c1ccc(N2CCN(C(=O)[C@@H](C)N3CCCc4cc(F)ccc43)CC2)cc1 [Compound 41, (R)-ethyl 4-(4-(2-(6-fluoro-3,4-dihydroquinolin-1(2H)-yl)propanoyl)piperazin-1-yl)phenylsulfonylcarbamate] was tested, and the IC50 was > 5 µM. In the case of COC(=O)NS(=O)(=O)c1ccc(NC(=O)Cn2ccc3ccc(C(F)(F)F)cc32)cc1 [Compound 39], the IC50 is reported as > 5 µM. For C[C@H](C(=O)Nc1ccc(S(=O)(=O)NC(=O)C2CCC2)cc1)n1ccc2c(F)cccc21 [Compound 42], the IC50 was > 5 µM. Work on COC(=O)NS(=O)(=O)c1ccc(NC(=O)C(C)n2ccc3cc(Cl)ccc32)cc1 (centres unmarked) [Compound 20] yielded an IC50 of 2 to 5 µM. For COC(=O)NS(=O)(=O)c1ccc(NC(=O)[C@H](CC(C)C)n2ccc3c(F)cccc32)cc1 [Compound 77], the IC50 was > 5 µM. With COC(=O)NS(=O)(=O)c1ccc(NC(=O)[C@@H](C)n2ccc3cccc(F)c32)cc1 [Compound 36] the IC50 was > 5 µM. With COC(=O)NS(=O)(=O)c1ccc(NC(=O)CCc2ccc(OC)cc2)cc1 [Compound 48] the IC50 was > 5 µM. In the case of COC(=O)NS(=O)(=O)c1ccc(NC(=O)c2ccc(OC)cc2)cc1 [Compound 88], the IC50 is reported as > 5 µM. COC(=O)NS(=O)(=O)c1ccc(NC(=O)[C@H](C)n2ccc3c(F)cccc32)cc1 [Compound 17] was tested, and the IC50 was > 5 µM. In the case of C[C@H](C(=O)Nc1ccc(S(=O)(=O)NC(=O)Oc2ccc(F)cc2)cc1)n1ccc2c(F)cccc21 [Compound 29], the IC50 is reported as > 5 µM. In the case of COC(=O)NS(=O)(=O)c1ccc(NC(=O)[C@@H](C)n2ccc3ccc(Cl)cc32)cc1 [Compound 16], the IC50 is reported as 2 to 5 µM. In the case of CNC(=O)NS(=O)(=O)c1ccc(NC(=O)[C@@H](C)n2ccc3c(F)cccc32)cc1 [Compound 31, (R)-2-(4-fluoro-1H indol-1-yl)-N-(4-(N-(methylcarbamoyl)sulfamoyl)phenyl)propanamide], the IC50 is reported as > 5 µM. COC(=O)NS(=O)(=O)c1ccc(NC(=O)[C@H](C)N2CCCc3ccccc32)cc1 [Compound 84] was tested, and the IC50 was > 5 µM. In the case of COC(=O)NS(=O)(=O)c1ccc(NC(=O)[C@@H](C)N2CCCc3ccccc32)cc1 [Compound 47], the IC50 is reported as > 5 µM. In the case of COC(=O)NS(=O)(=O)c1ccc(NC(=O)Cn2ccc3cc(Cl)ccc32)cc1 [Compound 26], the IC50 is reported as > 5 µM. With CCOC(=O)NS(=O)(=O)c1ccc(NC(=O)[C@@H](C)n2ccc3c(F)cccc32)cc1 [Compound 43, (R)-Ethyl 4-(2-(4-fluoro-1H-indol-1-yl)propanamido)phenylsulfonyl-carbamate] the IC50 was > 5 µM. With CCCCNC(=O)NS(=O)(=O)c1ccc(NC(=O)[C@@H](C)n2ccc3c(F)cccc32)cc1 [Compound 79] the IC50 was > 5 µM. With C[C@H](C(=O)Nc1ccc(S(=O)(=O)NC(=O)CC(C)(C)C)cc1)n1ccc2c(F)cccc21 [Compound 13] the IC50 was > 5 µM. COC(=O)NS(=O)(=O)c1ccc(NC(=O)C2(c3ccc4c(c3)OCO4)CC2)cc1 [Compound 38] was tested, and the IC50 was > 5 µM. In the case of COC(=O)NS(=O)(=O)c1ccc(NC(=O)Cn2cc(C#N)c3ccccc32)cc1 [Compound 19], the IC50 is reported as > 5 µM. For COC(=O)NS(=O)(=O)c1ccc(NC(=O)[C@@H](C)N2CCCc3cc(Cl)c(C)cc32)cc1 [Compound 22], the IC50 was < 2 µM. For COC(=O)NS(=O)(=O)c1ccc(NC(=O)[C@H](C)Oc2cccc(Cl)c2Cl)cc1 [Compound 65], the IC50 was > 5 µM. COC(=O)NS(=O)(=O)c1ccc(N2CCN(C(=O)[C@@H](C)N3CCCc4cc(Cl)ccc43)CC2)cc1 [Compound 50] was tested, and the IC50 was > 5 µM. In the case of COC(=O)NS(=O)(=O)c1ccc(NC(=O)[C@H](C)N2CCCc3cc(Cl)ccc32)cc1 [Compound 75], the IC50 is reported as > 5 µM. With NC(=O)NS(=O)(=O)c1ccc(NC(=O)CCn2ccc3cc(Cl)ccc32)cc1 [Compound 4] the IC50 was > 5 µM. In the case of COC(=O)NS(=O)(=O)c1ccc(NC(=O)[C@H](C)N2CCCc3cc(F)ccc32)cc1 [Compound 67], the IC50 is reported as > 5 µM. For COC(=O)NS(=O)(=O)c1ccc(NC(=O)[C@H](C)n2ccc3cccc(F)c32)cc1 [Compound 68], the IC50 was > 5 µM. In the case of C[C@H](C(=O)Nc1ccc(S(=O)(=O)NC(=O)c2ccccc2)cc1)n1ccc2c(F)cccc21 [Compound 74, (R)—N-(4-(2-(4-fluoro-1H indol-1-yl)propanamido)phenylsulfonyl)benzamide], the IC50 is reported as > 5 µM. For COC(=O)NS(=O)(=O)c1ccc(NC(=O)Cn2ccc3cc(F)ccc32)cc1 [Compound 27], the IC50 was > 5 µM. With COC(=O)NS(=O)(=O)c1ccc(NC(=O)Cn2ccc3c(C#N)cccc32)cc1 [Compound 44] the IC50 was > 5 µM. For COC(=O)NS(=O)(=O)c1ccc(NC(=O)COc2ccnc3c(C(F)(F)F)cccc23)cc1 [Compound 60], the IC50 was > 5 µM. With COC(=O)NS(=O)(=O)c1ccc(NC(=O)[C@@H](C)n2ccc3c(F)cccc32)cc1 [Compound 34] the IC50 was < 2 µM. With CCOC(=O)NS(=O)(=O)c1ccc(N2CCN(C(=O)[C@@H](C)N3CCCc4cc(Cl)ccc43)CC2)cc1 [Compound 52] the IC50 was > 5 µM. COC(=O)NS(=O)(=O)c1ccc(NC(=O)[C@@H](C)N2CCCc3cc(Cl)ccc32)cc1 [Compound 6, (R)-methyl 4-(2-(6-chloro-3,4-dihydroquinolin-1(2H)-yl)propanamido)phenylsulfonylcarbamate] was tested, and the IC50 was < 2 µM. With COC(=O)NS(=O)(=O)c1ccc(NC(=O)[C@H](C(C)C)N2CCCc3cc(Cl)ccc32)cc1 [Compound 24] the IC50 was > 5 µM. In the case of COC(=O)NS(=O)(=O)c1ccc(NC(=O)Cn2ccc3cc(C)ccc32)cc1 [Compound 14], the IC50 is reported as > 5 µM. With COC(=O)NS(=O)(=O)c1ccc(NC(=O)C(C)n2ccc3c(F)cccc32)cc1 (centres unmarked) [Compound 59] the IC50 was < 2 µM. In the case of C[C@H](C(=O)Nc1ccc(S(=O)(=O)NC(=O)NC(C)(C)C)cc1)n1ccc2c(F)cccc21 [Compound 54], the IC50 is reported as > 5 µM. COC(=O)NS(=O)(=O)c1ccc(NC(=O)[C@@H](C)N2CCCc3cc(F)ccc32)cc1 [Compound 55] was tested, and the IC50 was > 5 µM. COC(=O)NS(=O)(=O)c1ccc(NC(=O)Cn2ccc3cc(F)c(F)cc32)cc1 [Compound 8] was tested, and the IC50 was > 5 µM. For C[C@H](C(=O)Nc1ccc(S(=O)(=O)NC(=O)C2CCCC2)cc1)n1ccc2c(F)cccc21 [Compound 11, (R)—N-(4-(2-(4-fluoro-1H indol-1-yl)propanamido)phenylsulfonyl)cyclopentanecarboxamide], the IC50 was > 5 µM. For COC(=O)NS(=O)(=O)c1ccc(NC(=O)C(C)Oc2ccc(Cl)cc2C)cc1 (centres unmarked) [Compound 35], the IC50 was > 5 µM. For COC(=O)NS(=O)(=O)c1ccc(NC(=O)C(C)Oc2cccc(Cl)c2Cl)cc1 (stereo in doubt) [Compound 58, (R)-methyl 4-(2,3-dichlorophenoxy)propanamido) phenylsulfonylcarbamate], the IC50 was > 5 µM.

Source: patent publication US8883766B2, “Ion channel modulators and methods of use” (Vertex Pharmaceuticals Incorporated, priority 2007, dated 2014)
